Earlier results as cited in US20030083469A1, “Allosteric control of nuclear hormone receptors” (The Salk Institute for Biological Studies, priority 1995, published 2003).

Columns and labels:
RXR = settings: Allegretto et al., 1993, Allenby et al.; cited from earlier work
RAR = settings: Allegretto et al., 1993, Allenby et al.; cited from earlier work

CC1=C(/C=C/C(C)=C\C=C\C(C)=C\C(=O)O)C(C)(C)CCC1 [9-cis RA, 9-cis retinoic acid]
binding affinity (RXR): high affinity
binding affinity (RAR): high affinity
